According to patent US20260027163A1, “GUT MICROBIOME BACTERIA AND ENZYMES THAT METABOLIZE DIETARY AND MEDICINAL PLANT SMALL MOLECULES TO AFFECT GUT MICROBIOME” (The Children's Medical Center Corporation, priority 2022, published 2026):

Experiments:
DSS-induced colitis = experiment: DSS-induced colitis, bioactivation of salicin by Bacteroides uniformis; format: in vivo; settings: salicin bioactivated to saligenin by Bacteroides uniformis; FIGS. 7A-7B
Description: (§1) The present disclosure identifies and characterizes a novel mechanism by which the gut microbiome transforms abundant and chemically diverse small molecule components of human diet to drive pro-homeostatic programs in the intestine.

AhR [1] = target: T1, AhR (Homo sapiens, UniProt P35869); experiment: Activation of xenobiotic sensor AhR; format: cell-based; settings: FIG. 4
T1 sequence (P35869 11-848): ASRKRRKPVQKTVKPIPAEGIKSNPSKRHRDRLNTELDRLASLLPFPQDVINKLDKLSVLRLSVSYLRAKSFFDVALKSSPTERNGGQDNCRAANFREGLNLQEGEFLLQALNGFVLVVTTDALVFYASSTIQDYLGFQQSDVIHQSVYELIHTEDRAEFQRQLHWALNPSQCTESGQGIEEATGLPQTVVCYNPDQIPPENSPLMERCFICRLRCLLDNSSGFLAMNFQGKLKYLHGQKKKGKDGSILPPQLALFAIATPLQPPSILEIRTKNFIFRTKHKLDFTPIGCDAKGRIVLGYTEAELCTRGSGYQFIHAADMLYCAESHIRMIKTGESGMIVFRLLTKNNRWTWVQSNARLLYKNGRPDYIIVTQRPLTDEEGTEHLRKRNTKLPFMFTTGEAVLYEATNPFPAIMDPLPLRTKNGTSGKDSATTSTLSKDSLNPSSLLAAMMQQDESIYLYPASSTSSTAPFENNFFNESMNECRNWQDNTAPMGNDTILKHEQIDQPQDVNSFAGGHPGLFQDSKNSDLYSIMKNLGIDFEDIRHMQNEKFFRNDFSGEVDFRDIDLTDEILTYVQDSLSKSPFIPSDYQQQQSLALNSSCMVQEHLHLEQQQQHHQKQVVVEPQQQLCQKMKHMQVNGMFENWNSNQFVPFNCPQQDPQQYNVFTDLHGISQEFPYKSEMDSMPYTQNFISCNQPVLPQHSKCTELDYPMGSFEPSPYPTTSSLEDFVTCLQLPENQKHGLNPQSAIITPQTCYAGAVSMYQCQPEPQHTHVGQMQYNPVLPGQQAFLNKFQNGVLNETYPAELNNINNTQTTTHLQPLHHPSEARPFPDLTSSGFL
Description: Saligenin […] AhR, a xenobiotic immune sensor that drives pro-homeostatic processes in gut epithelia and immune cells.

AhR [2] = target: T2, AhR (Mus musculus, UniProt P30561); experiment: In vivo AhR activation in colitis, reversal with competitive AhR antagonist; settings: FIG. 9
T2 construct: endogenous in cells
T2 sequence (P30561 10-848): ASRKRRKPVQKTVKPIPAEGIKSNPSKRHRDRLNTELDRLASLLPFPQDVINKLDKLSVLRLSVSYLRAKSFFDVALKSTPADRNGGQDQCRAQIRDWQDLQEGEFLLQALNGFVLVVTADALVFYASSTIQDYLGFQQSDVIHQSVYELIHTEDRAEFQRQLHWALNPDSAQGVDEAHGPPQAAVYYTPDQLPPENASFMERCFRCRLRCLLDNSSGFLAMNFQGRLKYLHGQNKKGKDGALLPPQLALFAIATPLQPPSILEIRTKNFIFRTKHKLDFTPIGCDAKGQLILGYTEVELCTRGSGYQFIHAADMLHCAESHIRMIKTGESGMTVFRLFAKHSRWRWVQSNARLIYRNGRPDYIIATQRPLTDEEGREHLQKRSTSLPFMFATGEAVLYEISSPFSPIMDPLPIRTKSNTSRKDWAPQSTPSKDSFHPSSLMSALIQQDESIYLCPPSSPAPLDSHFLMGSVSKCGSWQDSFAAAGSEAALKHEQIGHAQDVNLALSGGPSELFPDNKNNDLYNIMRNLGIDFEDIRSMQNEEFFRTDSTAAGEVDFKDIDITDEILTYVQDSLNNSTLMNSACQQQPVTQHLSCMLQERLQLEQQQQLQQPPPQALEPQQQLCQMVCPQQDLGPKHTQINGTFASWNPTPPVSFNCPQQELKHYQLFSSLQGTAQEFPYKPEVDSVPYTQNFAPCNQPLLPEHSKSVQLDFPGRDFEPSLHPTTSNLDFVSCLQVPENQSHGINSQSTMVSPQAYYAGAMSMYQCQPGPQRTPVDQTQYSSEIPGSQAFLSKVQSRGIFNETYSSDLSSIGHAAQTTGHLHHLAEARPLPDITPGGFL
Description: as §1

[3] = tested on: macrophages stimulated with pro-inflammatory LP5; experiment: Inflammatory cytokine production by stimulated macrophages after saligenin pre-treatment; format: cell-based; settings: in vitro, FIGS. 1A-1B
[4] = tested on: DSS-induced intestinal inflammation; experiment: DSS-induced colitis, pure compound delivered orally; format: in vivo, mice
Description: as §1

SMILES | protection against DSS-induced colitis (DSS-induced colitis) | AhR activation (AhR [1]) | AhR activation in vivo, reversibility by antagonist (AhR [2]) | inflammatory cytokine production [3] | Th1-effector cells ([4]; DSS exposure, FIGS. 6A-6B) | colonic IFN-gamma ([4]; DSS exposure, FIGS. 11A-11B) | protection against DSS-induced intestinal inflammation ([4]; pure compound delivered orally daily for 7 days, mice, FIGS. 8A-8B)
OCc1ccccc1O[C@@H]1O[C@H](CO)[C@@H](O)[C@H](O)[C@H]1O [salicin] | protected against DSS-induced colitis |  |  |  |  |  | 
OCc1ccccc1O [saligenin] |  | activated | can be reversed with a competitive AhR antagonist | attenuated inflammatory cytokine production | decrease in Th1-effector cells | decrease in colonic IFN-gamma | protected against DSS-induced intestinal inflammation
